# In paper PMC6510909 (Investigational New Drugs, 2018):
# Read-outs that look alike come from different tables or passages of the source.
# Experiments:
# [1] = system: patients with previously untreated metastatic PDAC; settings: for Overall safety and tolerability: in combination with nab-P + G, up to 200 mg twice daily
# Source text: Patients were ≥ 18 years of age with previously untreated metastatic PDAC (measurable per Response Evaluation Criteria in Solid Tumors [RECIST] v 1.1); and an Eastern Cooperative Oncology Group (ECOG) performance status ≤1 and adequate hematologic, renal, and hepatic function. […] All patients provided written informed consent prior to enrollment.
# Screening occurred within 21 days before the first MMB dose and included medical history and prior/concomitant medication review, physical exam and assessments of vital signs, ECOG performance status, pregnancy test (females), laboratory assessment, adverse event (AE) assessment, and staging CT or MRI. MMB was given orally once or twice daily as per the assigned dosing cohort: Cohort 1–100 mg MMB once daily; Cohort 2–150 mg MMB once daily; Cohort 3–200 mg MMB once daily; Cohort 4–150 mg MMB twice daily; and Cohort 5–200 mg MMB twice daily. […] Each dose cohort consisted of 3 patients, unless a dose-limiting toxicity (DLT) was experienced during the first 28 days of treatment. If one DLT was experienced, 3 additional patients were enrolled in the dose cohort. If a second DLT was experienced in the same cohort, MTD was considered to be exceeded. Dose escalation continued from Dose Level 2 to 3 to 4 to 5 if no DLT occurred in 3 evaluable subjects or < 2 DLTs occurred in 6 evaluable patients within each dose level.
# Primary endpoint was incidence of DLT(s) based on the Common Terminology Criteria for Adverse Events (CTCAE) version 4.03. Secondary endpoints were overall survival (OS) (defined as the time interval from the first dose of MMB to death from any cause; patients lost to follow-up or who survived until the end of study were censored at the last date that they were known to be alive), progression-free survival (PFS) (defined as the time interval from the first dose of MMB to the earlier of the first documentation of definitive disease progression or death from any cause), overall response rate (ORR) (proportion of patients who achieved a complete or partial response [CR or PR, respectively] during MMB therapy), and duration of response (time from CR or PR to definitive disease progression or death from any cause).
# Planned enrollment was up to 30 patients based on the standard 3 + 3 design. The efficacy analyses were conducted in all enrolled patients. Safety analyses were conducted in all enrolled patients who received ≥1 dose of study treatment. Descriptive summary statistics were provided for patient characteristics and safety variables. Kaplan-Meier estimates were used for OS, PFS, duration of response, and their 95% confidence intervals (CIs). The ORR was summarized for each dose level cohort with corresponding 2-sided 95% exact CIs based on the Clopper-Pearson method.
# TBK1 = TBK1 inhibition estimated from plasma Cmax; design: species or system human
# [2] = system: patients with previously untreated metastatic PDAC; assay: Phase 1 efficacy: best overall response (RECIST v1.1), OS, PFS, duration of response; assay type: in vivo, human
# Method: All patients provided written informed consent prior to enrollment.
# Staging CT or MRI scans were performed at baseline and approximately every 8 weeks following Cycle 1 Day 1. Imaging modalities were maintained over the course of the study. Treatment was to continue in the absence of disease progression, unacceptable toxicity, consent withdrawal, or refusal of treatment. After discontinuation of treatment, patients were followed for safety for 30 days.
# The efficacy analyses were conducted in all enrolled patients.
# [3] = all cohorts, MMB + nab-P + G, n = 25
# [4] = all cohorts, MMB + nab-P + G, AE consistent with JAK1/2 inhibition
# [5] = 100 mg MMB QD n = 7, + nab-P + G
# [6] = 150 mg MMB BID n = 3, + nab-P + G
# [7] = 150 mg MMB QD n = 4, + nab-P + G
# [8] = 200 mg MMB BID n = 4, + nab-P + G
# [9] = 200 mg MMB QD n = 7, + nab-P + G
# [10] = overall study population, MMB + nab-P + G
smiles,measurement,setting,value
"N#CCNC(=O)c1ccc(-c2ccnc(Nc3ccc(N4CCOCC4)cc3)n2)cc1 [MMB, momelotinib]","Dose-limiting toxicity (Grade 3 diarrhea), patients",[1]; 100 mg MMB once daily + nab-P + G,1 patient
same,"Dose-limiting toxicity (Grade 3 diarrhea), patients",[1]; 200 mg MMB once daily + nab-P + G,1 patient
same,Maximum tolerated dose (MTD),[1]; MMB up to 200 mg twice daily + nab-P + G,not reached
same,Deaths due to TEAEs,[1]; [3],no deaths
same,Grade 3 MMB-related AE deep vein thrombosis,[1]; [3],4.0%
same,Grade 3 MMB-related AE dehydration,[1]; [3],4.0%
same,Grade 3 MMB-related AE diarrhea,[1]; [3],12.0%
same,Grade 3 MMB-related AE fatigue,[1]; [3],4.0%
same,Grade 3 MMB-related AE febrile neutropenia,[1]; [3],4.0%
same,Grade 3 MMB-related AE generalized edema,[1]; [3],4.0%
same,Grade 3 MMB-related AE hypertension,[1]; [3],4.0%
same,Grade 3 MMB-related AE malaise,[1]; [3],4.0%
same,Grade 3 MMB-related AE nephrolithiasis,[1]; [3],4.0%
same,Grade 3 MMB-related AE peripheral edema,[1]; [3],4.0%
same,Grade 3 MMB-related AE peripheral sensory motor neuropathy,[1]; [3],8.0%
same,Grade 3 MMB-related AE polyneuropathy,[1]; [3],4.0%
same,Grade 3 MMB-related AE respiratory distress,[1]; [3],4.0%
same,Grade 3 MMB-related AE thrombocytopenia,[1]; [3],8.0%
same,Grade 3 MMB-related AE tremor,[1]; [3],4.0%
same,Grade 3 or 4 AEs considered related to MMB,[1]; [3],44%
same,"Grade 3 or 4 TEAEs, patients",[1]; [3],88%
same,"Grade 3 or 4 neutropenia, patients",[1]; [3],32%
same,Grade 4 MMB-related event embolic stroke,[1]; [3],4.0%
same,Grade 4 MMB-related event increased blood uric acid,[1]; [3],4.0%
same,Grade 4 MMB-related event neutropenia,[1]; [3],4.0%
same,"Neutropenia Grade 3, patients",[1]; [3],16%
same,"Neutropenia Grade 4, patients",[1]; [3],16%
same,Patients with at least one treatment-emergent AE (TEAE),[1]; [3],All patients
same,"Peripheral neuropathy attributed by investigators as related to the drug, patients",[1]; [3],16%
same,"Peripheral neuropathy leading to discontinuation of MMB, patients",[1]; [3],8%
same,"Peripheral sensory neuropathy attributed by investigators as related to the drug, patients",[1]; [3],24%
same,"Pneumonia Grade 3, patients",[1]; [3],24%
same,"SAEs considered related to MMB, patients",[1]; [3],24%
same,"Serious AEs (SAEs), patients",[1]; [3],72%
same,"TEAE abdominal pain, patients",[1]; [3],44%
same,"TEAE alopecia, patients",[1]; [3],40%
same,"TEAE anemia, patients",[1]; [3],68%
same,"TEAE constipation, patients",[1]; [3],52%
same,"TEAE decreased appetite, patients",[1]; [3],40%
same,"TEAE diarrhea, patients",[1]; [3],64%
same,"TEAE dysgeusia, patients",[1]; [3],40%
same,"TEAE fatigue, patients",[1]; [3],80%
same,"TEAE hypertension, patients",[1]; [3],36%
same,"TEAE nausea, patients",[1]; [3],76%
same,"TEAE peripheral edema, patients",[1]; [3],48%
same,"TEAE peripheral neuropathy, patients",[1]; [3],36%
same,"TEAE peripheral sensory neuropathy, patients",[1]; [3],36%
same,"TEAE pyrexia, patients",[1]; [3],56%
same,"TEAE vomiting, patients",[1]; [3],52%
same,"Peripheral neuropathy, predefined AE of interest, patients","[1]; all cohorts, MMB + nab-P + G, n = 25, higher incidence at the two highest dose levels",60%
same,"AE neutropenia, patients",[1]; [4],32%
same,"AE thrombocytopenia, patients",[1]; [4],20%
same,Overall safety and tolerability,[1],safe and well tolerated
same,Overall safety and tolerability,[1]; listed as Momelotinib,well tolerated
same,Maximum administered dose (MAD),"[1]; twice daily, + nab-P + G",200 mg
same,Estimated transient maximal TBK1 inhibition,TBK1; based on the Cmax of approximately 300 ng/mL,EC70
same,MMB concentrations relative to TBK1 inhibition,TBK1; pharmacokinetic analyses,too low
same,Best overall response: CR,[2]; [5],"0 n, (%)"
same,Best overall response: Not evaluable,[2]; [5],"2 (28.6) n, (%)"
same,Best overall response: ORR (CR + PR),[2]; [5],"2 (28.6) n, (%)"
same,Best overall response: PD,[2]; [5],"1 (14.3) n, (%)"
same,Best overall response: PR,[2]; [5],"2 (28.6) n, (%)"
same,Best overall response: SD,[2]; [5],"2 (28.6) n, (%)"
same,Best overall response: CR,[2]; [6],"0 n, (%)"
same,Best overall response: Not evaluable,[2]; [6],"1 (33.3) n, (%)"
same,Best overall response: ORR (CR + PR),[2]; [6],"1 (33.3) n, (%)"
same,Best overall response: PD,[2]; [6],"0 n, (%)"
same,Best overall response: PR,[2]; [6],"1 (33.3) n, (%)"
same,Best overall response: SD,[2]; [6],"1 (33.3) n, (%)"
same,Best overall response: CR,[2]; [7],"0 n, (%)"
same,Best overall response: Not evaluable,[2]; [7],"0 n, (%)"
same,Best overall response: ORR (CR + PR),[2]; [7],"1 (25.0) n, (%)"
same,Best overall response: PD,[2]; [7],"1 (25.0) n, (%)"
same,Best overall response: PR,[2]; [7],"1 (25.0) n, (%)"
same,Best overall response: SD,[2]; [7],"2 (50.0) n, (%)"
same,Best overall response: CR,[2]; [8],"0 n, (%)"
same,Best overall response: Not evaluable,[2]; [8],"0 n, (%)"
same,Best overall response: ORR (CR + PR),[2]; [8],"0 n, (%)"
same,Best overall response: PD,[2]; [8],"0 n, (%)"
same,Best overall response: PR,[2]; [8],"0 n, (%)"
same,Best overall response: SD,[2]; [8],"4 (100.0) n, (%)"
same,Best overall response: CR,[2]; [9],"0 n, (%)"
same,Best overall response: Not evaluable,[2]; [9],"0 n, (%)"
same,Best overall response: ORR (CR + PR),[2]; [9],"3 (42.9) n, (%)"
same,Best overall response: PD,[2]; [9],"0 n, (%)"
same,Best overall response: PR,[2]; [9],"3 (42.9) n, (%)"
same,Best overall response: SD,[2]; [9],"4 (57.1) n, (%)"
same,Complete responses (CRs) across the dose cohorts,[2]; [3],no CRs
same,Partial responses (PRs) across the dose cohorts,[2]; [3],7
same,"Stable disease as the best response, patients",[2]; [3],52%
same,"Objective response rate (ORR), overall study population","[2]; all cohorts, MMB + nab-P + G, n = 25, 95% CI 12.1%–49.4%",28%
same,Median (95% CI) OS,[2]; [10],"8.7 (6.7, 18.8) months"
same,Median (95% CI) PFS,[2]; [10],"5.7 (5.3, 7.2) months"
same,Median (95% CI) duration of response,[2]; the 7 patients with a PR,"4.0 (0.5, not reached) months"
